Data on 58 molecules can be found in patent US20250197382A1, “KIF18A INHIBITOR” (WIGEN BIOMEDICINE TECHNOLOGY (SHANGHAI) CO., LTD., priority 2022, published 2025).

Each structure is given as a SMILES string. Where only a bound is given, the exact number is not on record here.

For this experiment, the target named is Recombinant human KIF18A (1-467His-tagged) protein (Homo sapiens (Human), UniProt Q8NI77). Description: KIF18A enzyme assay (microtubule-stimulated ATPase activity, ADP-Glo). Type of experiment: biochemical. The settings on record: 30 nM KIF18A, ATP 75 μM, read-out: inhibitory activity against KIF18A IC50. Summed up: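 Baculovirus-expressed human KIF18A (1-467, His-tagged; 30 nM) preincubated 15 min at room temperature with compound (22-point 2-fold series) in pH 7.5 Tris buffer containing 30 μg/mL pig microtubules and 1 μM paclitaxel.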
Recombinant human KIF18A (1-467His-tagged) protein, sequence (Q8NI77 1-467): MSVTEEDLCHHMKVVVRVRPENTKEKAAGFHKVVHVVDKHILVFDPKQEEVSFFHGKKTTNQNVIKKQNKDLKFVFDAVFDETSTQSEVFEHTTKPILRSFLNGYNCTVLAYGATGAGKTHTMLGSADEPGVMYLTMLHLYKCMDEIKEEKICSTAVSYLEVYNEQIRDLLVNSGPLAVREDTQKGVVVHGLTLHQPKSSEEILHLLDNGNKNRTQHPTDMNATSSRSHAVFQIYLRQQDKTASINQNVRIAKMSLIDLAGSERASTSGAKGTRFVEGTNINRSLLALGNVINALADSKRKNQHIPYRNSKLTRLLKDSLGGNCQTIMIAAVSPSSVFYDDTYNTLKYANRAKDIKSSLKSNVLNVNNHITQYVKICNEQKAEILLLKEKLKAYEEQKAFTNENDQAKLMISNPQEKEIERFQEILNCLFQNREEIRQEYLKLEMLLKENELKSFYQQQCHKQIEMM
Recombinant human KIF18A (1-467His-tagged) protein, sequence (P02550 whole entry partner): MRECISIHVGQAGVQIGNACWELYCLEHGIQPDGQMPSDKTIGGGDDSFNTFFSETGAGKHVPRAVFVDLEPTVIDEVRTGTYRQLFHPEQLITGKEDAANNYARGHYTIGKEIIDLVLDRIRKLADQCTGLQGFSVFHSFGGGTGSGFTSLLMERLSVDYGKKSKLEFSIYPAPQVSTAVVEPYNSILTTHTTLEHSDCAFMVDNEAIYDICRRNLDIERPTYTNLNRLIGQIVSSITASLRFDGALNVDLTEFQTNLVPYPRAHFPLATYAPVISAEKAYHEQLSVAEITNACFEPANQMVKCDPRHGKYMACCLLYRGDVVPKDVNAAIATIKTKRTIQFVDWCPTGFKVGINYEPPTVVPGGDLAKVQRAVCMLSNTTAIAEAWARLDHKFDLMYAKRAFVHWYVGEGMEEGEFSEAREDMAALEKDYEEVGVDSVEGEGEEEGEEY
Recombinant human KIF18A (1-467His-tagged) protein, sequence (P02554 whole entry partner): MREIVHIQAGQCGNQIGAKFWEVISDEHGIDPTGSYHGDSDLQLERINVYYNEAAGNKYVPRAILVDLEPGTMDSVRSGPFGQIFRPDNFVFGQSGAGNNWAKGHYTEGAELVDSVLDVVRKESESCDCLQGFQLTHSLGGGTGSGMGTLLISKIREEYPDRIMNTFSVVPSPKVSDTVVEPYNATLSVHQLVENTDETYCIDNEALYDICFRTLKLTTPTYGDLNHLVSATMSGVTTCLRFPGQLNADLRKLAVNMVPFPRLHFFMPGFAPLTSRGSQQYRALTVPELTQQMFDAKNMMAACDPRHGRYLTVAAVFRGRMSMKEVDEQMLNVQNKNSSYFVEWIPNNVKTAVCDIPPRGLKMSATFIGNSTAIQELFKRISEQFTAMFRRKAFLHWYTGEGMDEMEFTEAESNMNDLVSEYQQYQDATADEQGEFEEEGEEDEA
A general note: In ADP-Glo the light output rises with the ADP produced.
`CC1(F)CCN(c2cc(NC(=O)c3ccc(S(=O)(=O)NCCO)cc3N3CCC4(CC3)CC4)cc3ccoc23)C1` (stereo not shown) [Compound 152]: the IC50 (usually the midpoint of a concentration-inhibition curve) was at most 100 nM.

As for `O=C(Nc1ccc(NS(=O)(=O)CCO)cc1N1CCC2(CC1)CC2)c1cc2ccoc2c(N2CC(F)(F)C2)n1` [Compound 228], the concentration for half-maximal inhibition (IC50) is at most 100 nM. Take `C[C@H](CO)S(=O)(=O)Nc1ccc(NC(=O)c2cc3c(c(N4CCC(F)(F)CC4)n2)N(C)CC3)c(N2CCC3(CC2)CC3)c1` [Compound 366]: the IC50 is at most 100 nM.

On to `O=C(Nc1ccc(NS(=O)(=O)CCO)cc1N1CCC2(CC1)CC2)c1cc2c(c(N3CCC(F)(F)CC3)c1)OCCC2` [Compound 545], for which the concentration for half-maximal inhibition (IC50) is at most 100 nM. With `C[C@@H]1CN(c2cc(C(=O)Nc3ccc(S(=O)(=O)NCCO)cc3N3CCC4(CC3)CC4)cc3ccoc23)CCO1` [Compound 178] the figure was at most 100 nM; with `Cn1ccc2cc(NC(=O)c3ccc(NS(=O)(=O)CCO)cc3N3CCC4(CC3)CC4)cc(OC3CCC3)c21` [Compound 391], at most 100 nM. Take `O=C(Nc1cc2ncoc2c(N2CCC(F)(F)CC2)n1)c1ccc(NS(=O)(=O)CCO)cc1N1CCC2(CC1)CC2` [Compound 514]: the IC50 is at most 100 nM. Regarding `O=C(Nc1ccc(NS(=O)(=O)CCO)cc1N1CCC2(CC1)CC2)c1cc2ccoc2c(OC2CCC2)n1` [Compound 231], the concentration for half-maximal inhibition (IC50) was at most 100 nM. As for `C[C@H]1CN(c2cc(NC(=O)c3ccc(S(=O)(=O)NCCO)cc3N3CCC4(CC3)CC4)cc3c2OCC3)CCO1` [Compound 19], the IC50 is at most 100 nM. Consider `O=C(Nc1ccc(S(=O)(=O)NCCO)cc1N1CCC2(CC1)CC2)c1cc2c(c(N3CC4CC4C3)n1)OCC2` (stereo not shown) [Compound 122], for which the IC50 is at most 100 nM. With `O=C(Nc1ccc(S(=O)(=O)NCCO)cc1N1CCC2(CC1)CC2)c1cc2c(c(N3CCC4(CC4)C3)c1)OCC2` [Compound 54] the figure was at most 100 nM; with `C[C@@H](CO)NS(=O)(=O)c1ccc(C(=O)Nc2cc3ccn(C)c3c(N3CCC(F)(F)CC3)n2)c(N2CCC3(CC2)CC3)c1` [Compound 477], at most 100 nM. With `Cn1ccc2cc(NC(=O)c3ccc(S(=O)(=O)NCCO)cc3N3CCC4(CC3)CC4)nc(N3CCOCC3)c21` [Compound 476] the figure was at most 100 nM; with `O=C(Nc1cc2c(c(OC3CCC3)n1)OCC2)c1ccc(S(=O)(=O)NCCO)cc1N1CCC2(CC1)CC2` [Compound 87], at most 100 nM. For `O=C(Nc1cc2c(c(N3CCC(F)(F)CC3)n1)OCO2)c1ccc(NS(=O)(=O)CCO)cc1N1CCC2(CC1)CC2` [Compound 538], the IC50 is at most 100 nM. On to `C[C@@H]1CN(c2cc(C(=O)Nc3ccc(NS(=O)(=O)[C@@H](C)CO)cc3N3CCC4(CC3)CC4)cc3ccn(C)c23)CCO1` [Compound 431], for which the 50% inhibitory concentration (IC50) was at most 100 nM. In the case of `O=C(Nc1ccc(NS(=O)(=O)CCO)cc1N1CCC2(CC1)CC2)c1cc2c(c(N3CCC(F)CC3)n1)OCC2` [Compound 105], the IC50 is at most 100 nM. `C[C@@H](CO)S(=O)(=O)Nc1ccc(NC(=O)c2cc3c(c(N4CCC(F)(F)CC4)n2)N(C)CC3)c(N2CCC3(CC2)CC3)c1` [Compound 365]: the IC50 is at most 100 nM. As for `C[C@@H]1CN(c2nc(C(=O)Nc3ccc(S(=O)(=O)NCCO)cc3N3CCC4(CC3)CC4)cc3c2OCC3)CCO1` [Compound 114], the half-inhibitory concentration (IC50) is at most 100 nM. `C[C@@H]1CN(c2nc(C(=O)Nc3ccc(NS(=O)(=O)CCO)cc3N3CCC4(CC3)CC4)cc3ccn(C)c23)CCO1` [Compound 482]: the IC50 is at most 100 nM. With `O=C(Nc1cc2ccnn2c(N2CCC(F)(F)CC2)n1)c1ccc(NS(=O)(=O)CCO)cc1N1CCC2(CC1)CC2` [Compound 534] the figure was at most 100 nM; with `CC1(F)CCN(c2nc(C(=O)Nc3ccc(NS(=O)(=O)CCO)cc3N3CCC4(CC3)CC4)cc3ccoc23)C1` (stereo not shown) [Compound 232], at most 100 nM. Turning to `CN1CCc2cc(NC(=O)c3ccc(S(=O)(=O)NCCO)cc3N3CCC4(CC3)CC4)cc(NC(C)(C)CO)c21` [Compound 283], the half-inhibitory concentration (IC50) is at most 100 nM. Take `CN1CCc2cc(NC(=O)c3ccc(NS(=O)(=O)CCO)cc3N3CCC4(CC3)CC4)cc(N3CCC(F)(F)CC3)c21` [Compound 289]: the IC50 is at most 100 nM.

Take `Cn1ccc2cc(C(=O)Nc3ccc(NS(=O)(=O)CCO)cc3N3CCC4(CC3)CC4)cc(N3CCOCC3)c21` [Compound 428]: the half-inhibitory concentration (IC50) was at most 100 nM. In the case of `CN1CCc2cc(C(=O)Nc3ccc(S(=O)(=O)NCCO)cc3N3CCC4(CC3)CC4)cc(OCCC(F)(F)F)c21` [Compound 309], the IC50 was at most 100 nM. As to `C[C@H]1CN(c2nc(NC(=O)c3ccc(S(=O)(=O)NCCO)cc3N3CCC4(CC3)CC4)cc3c2N(C)CC3)CCO1` [Compound 339], the IC50 is at most 100 nM. Take `Cn1ccc2cc(NC(=O)c3ccc(S(=O)(=O)NCCO)cc3N3CCC4(CC3)CC4)cc(N3CC4CC4C3)c21` (stereo not shown) [Compound 410]: the IC50 was at most 100 nM.

With `O=C(Nc1cc(N2CCOCC2)c2occc2c1)c1ccc(NS(=O)(=O)CCO)cc1N1CCC2(CC1)CC2` [Compound 140], the IC50 is at most 100 nM.

Take `CN1CCc2cc(C(=O)Nc3ccc(NS(=O)(=O)CCO)cc3N3CCC4(CC3)CC4)cc(N3CC(F)(F)C3)c21` [Compound 292]: the 50% inhibitory concentration (IC50) is at most 100 nM. For `C[C@@H](CO)S(=O)(=O)Nc1ccc(C(=O)Nc2cc3c(c(N4CCC(F)(F)CC4)n2)N(C)CC3)c(C2CCC3(CC2)CC3)c1` [Compound 333], the IC50 is at most 100 nM. Take `C[C@@H]1CN(c2cc(NC(=O)c3ccc(NS(=O)(=O)[C@@H](C)CO)cc3N3CCC4(CC3)CC4)cc3ccn(C)c23)CCO1` [Compound 399]: the IC50 was at most 100 nM.

Take `C[C@@H]1CN(c2cc(NC(=O)c3ccc(NS(=O)(=O)CCO)cc3N3CCC4(CC3)CC4)cc3ccn(C)c23)CCO1` [Compound 386]: the half-inhibitory concentration (IC50) was at most 100 nM. As to `C[C@H](CO)NS(=O)(=O)c1ccc(NC(=O)c2cc(N3CCO[C@H](C)C3)c3occc3c2)c(N2CCC3(CC2)CC3)c1` [Compound 192], the IC50 was at most 100 nM. In the case of `Cn1ccc2cc(NC(=O)c3ccc(NS(=O)(=O)CCO)cc3N3CCC4(CC3)CC4)cc(N3CCC4(CC4)C3)c21` [Compound 390], the IC50 was at most 100 nM. Take `CC(C)(CO)Nc1nc(C(=O)Nc2ccc(S(=O)(=O)NCCO)cc2N2CCC3(CC2)CC3)cc2ccoc12` [Compound 251]: the half-maximal inhibitory concentration (IC50) is at most 100 nM. Take `O=C(Nc1ccc(NS(=O)(=O)CCO)cc1N1CCC2(CC1)CC2)c1cc2c(c(N3CC4CC4C3)c1)OCC2` (stereo not shown) [Compound 42]: the IC50 is at most 100 nM.

`CN1CCc2cc(C(=O)Nc3ccc(NS(=O)(=O)CCO)cc3N3CCC4(CC3)CC4)cc(N3CC4CC4C3)c21` (stereo not shown) [Compound 298]: the 50% inhibitory concentration (IC50) is at most 100 nM. Turning to `CN1CCc2cc(C(=O)Nc3ccc(S(=O)(=O)NCCO)cc3N3CCC4(CC3)CC4)cc(N3CCC(C)(F)C3)c21` (stereo not shown) [Compound 312], the half-inhibitory concentration (IC50) is at most 100 nM. With `O=C(Nc1ccc(NS(=O)(=O)CCO)cc1N1CCC2(CC1)CC2)c1cc2c(c(N3CCOCC3)c1)OCC2` [Compound 44] the figure was at most 100 nM; with `Cn1ccc2cc(C(=O)Nc3ccc(S(=O)(=O)NCCO)cc3N3CCC4(CC3)CC4)nc(N3CCC(C)(F)C3)c21` (stereo not shown) [Compound 504], at most 100 nM; with `C[C@@H]1CN(c2nc(NC(=O)c3ccc(NS(=O)(=O)[C@H](C)CO)cc3N3CCC4(CC3)CC4)cc3c2N(C)CC3)CCO1` [Compound 336], at most 100 nM. Regarding `Cn1ccc2cc(NC(=O)c3ccc(S(=O)(=O)NCCO)cc3N3CCC4(CC3)CC4)cc(OCCC(F)(F)F)c21` [Compound 405], the IC50 is at most 100 nM. On to `O=C(Nc1cc(N2CCOCC2)c2occc2c1)c1ccc(S(=O)(=O)NCCO)cc1N1CCC2(CC1)CC2` [Compound 156], for which the IC50 was at most 100 nM. Turning to `C[C@@H]1CN(c2nc(NC(=O)c3ccc(NS(=O)(=O)CCO)cc3N3CCC4(CC3)CC4)cc3ccn(C)c23)CCO1` [Compound 450], the IC50 was at most 100 nM. With `C[C@@H](CO)S(=O)(=O)Nc1ccc(NC(=O)c2cc3c(c(N4CCC(F)(F)CC4)c2)N(C)CC3)c(N2CCC3(CC2)CC3)c1` [Compound 301] the figure was at most 100 nM; with `C[C@@H]1CN(c2nc(C(=O)Nc3ccc(S(=O)(=O)NCCO)cc3N3CCC4(CC3)CC4)cc3ccoc23)CCO1` [Compound 242], at most 100 nM.

As to `C[C@@H]1CN(c2nc(C(=O)Nc3ccc(S(=O)(=O)N[C@@H](C)CO)cc3N3CCC4(CC3)CC4)cc3c2OCC3)CCO1` [Compound 127], the IC50 is at most 100 nM. For the molecule `O=C(Nc1ccc(S(=O)(=O)NCCO)cc1N1CCC2(CC1)CC2)c1cc2c(c(N3CCC(F)(F)CC3)n1)OCCC2` [Compound 550], the IC50 is at most 100 nM.

Consider `O=C(Nc1cc2ccoc2c(N2CCC3(CC3)C2)n1)c1ccc(NS(=O)(=O)CCO)cc1N1CCC2(CC1)CC2` [Compound 198], for which the IC50 was at most 100 nM. With `Cn1ccc2cc(NC(=O)c3ccc(S(=O)(=O)NCCO)cc3N3CCC4(CC3)CC4)nc(CC(C)(C)CO)c21` [Compound 475], the half-maximal inhibitory concentration (IC50) was at most 100 nM. With `Cn1ccc2cc(C(=O)Nc3ccc(S(=O)(=O)NCCO)cc3N3CCC4(CC3)CC4)cc(N3CC(F)(F)C3)c21` [Compound 436], the IC50 was at most 100 nM.

With `O=C(Nc1cc(N2CCC(F)CC2)c2occc2c1)c1ccc(NS(=O)(=O)CCO)cc1N1CCC2(CC1)CC2` [Compound 137], the IC50 is at most 100 nM. With `C[C@@H](CO)S(=O)(=O)Nc1ccc(NC(=O)c2cc3ccn(C)c3c(N3CCC(F)(F)CC3)n2)c(N2CCC3(CC2)CC3)c1` [Compound 493] the figure was at most 100 nM. On to `C[C@H](CO)NS(=O)(=O)c1ccc(C(=O)Nc2cc3ccoc3c(N3CCC(F)(F)CC3)n2)c(N2CCC3(CC2)CC3)c1` [Compound 222], for which the concentration for half-maximal inhibition (IC50) was at most 100 nM. With `Cn1ccc2cc(C(=O)Nc3ccc(NS(=O)(=O)CCO)cc3N3CCC4(CC3)CC4)cc(N3CCC4(CC4)C3)c21` [Compound 422], the IC50 was at most 100 nM.

For the molecule `O=C(Nc1cc2c(c(N3CCC(F)(F)CC3)c1)OCC2)c1ccc(S(=O)(=O)NCCO)cc1N1CCC2(CC1)CC2` [Compound 17], the IC50 was at most 100 nM.

Turning to `CN1CCc2cc(NC(=O)c3ccc(S(=O)(=O)NCCO)cc3N3CCC4(CC3)CC4)cc(OCCC(F)(F)F)c21` [Compound 277], the IC50 is at most 100 nM.
